Experimental data: PubChem BioAssay (NCI)
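Briefly, cells in 96-well plates were exposed to five compound concentrations for 48 h, and endpoints were estimated by linear interpolation. At the GI50, growth is halved. Definition used: TGI = concentration required for complete inhibition of growth.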

What was measured:
Assay in all cases: growth of human tumour cells (NCI), 48 h
[1] = test system: 786-0 renal
[2] = test system: A498 renal
[3] = test system: A549 NSCLC
[4] = test system: ACHN renal
[5] = test system: BT-549 breast
[6] = test system: CCRF-CEM leukemia
[7] = test system: COLO 205 colon
[8] = test system: DU-145 prostate
[9] = test system: HCC-2998 colon
[10] = test system: HCT-116 colon
[11] = test system: HCT-15 colon
[12] = test system: HL-60(TB) leukemia
[13] = test system: HOP-62 NSCLC
[14] = test system: HOP-92 NSCLC
[15] = test system: HS 578T breast
[16] = test system: HT29 colon
[17] = test system: IGROV1 ovarian
[18] = test system: K-562 leukemia
[19] = test system: KM12 colon
[20] = test system: LOX IMVI melanoma
[21] = test system: M14 melanoma
[22] = test system: MDA-MB-435
[23] = test system: MOLT-4 leukemia
[24] = test system: NCI-H226 lung
[25] = test system: NCI-H23 lung
[26] = test system: NCI-H460 lung
[27] = test system: NCI/ADR-RES ovarian
[28] = test system: OVCAR-3 ovarian
[29] = test system: OVCAR-4 ovarian
[30] = test system: OVCAR-5 ovarian
[31] = test system: OVCAR-8 ovarian
[32] = test system: PC-3 prostate
[33] = test system: RPMI-8226 leukemia
[34] = test system: RXF 393 renal
[35] = test system: SF-268 CNS
[36] = test system: SK-MEL-2 melanoma
[37] = test system: SK-MEL-28 melanoma
[38] = test system: SK-MEL-5 melanoma
[39] = test system: SK-OV-3 ovarian
[40] = test system: SNB-19 CNS
[41] = test system: SNB-75 CNS
[42] = test system: SR leukemia
[43] = test system: SW-620 colon
[44] = test system: T-47D breast
[45] = test system: U251 CNS
[46] = test system: UACC-257 melanoma
[47] = test system: UACC-62 melanoma
[48] = test system: CAKI-1 renal
[49] = test system: EKVX NSCLC
[50] = test system: MALME-3M melanoma
[51] = test system: MCF7 breast
[52] = test system: MDA-MB-231 breast
[53] = test system: NCI-H522 lung
[54] = test system: SF-295 CNS
[55] = test system: SF-539 CNS
[56] = test system: SN12C renal
[57] = test system: TK-10 renal
[58] = test system: UO-31 renal

COc1cc2c(cc1NC(=O)c1ccccc1)c1c(n2S(=O)(=O)c2ccccc2)CCN(S(=O)(=O)c2ccccc2)C1
TGI [1]: > 100 µM | TGI [2]: > 100 µM | TGI [3]: > 100 µM | TGI [4]: > 100 µM | TGI [5]: > 100 µM | TGI [6]: > 100 µM | TGI [7]: > 100 µM | TGI [8]: > 100 µM | TGI [9]: > 100 µM | TGI [10]: > 100 µM | TGI [11]: > 100 µM | TGI [12]: > 100 µM | TGI [13]: > 100 µM | TGI [14]: > 100 µM | TGI [15]: > 100 µM | TGI [16]: > 100 µM | TGI [17]: > 100 µM | TGI [18]: > 100 µM | TGI [19]: > 100 µM | TGI [20]: > 100 µM | TGI [21]: > 100 µM | TGI [22]: > 100 µM | TGI [23]: > 100 µM | TGI [24]: > 100 µM | TGI [25]: > 100 µM | TGI [26]: > 100 µM | TGI [27]: > 100 µM | TGI [28]: > 100 µM | TGI [29]: > 100 µM | TGI [30]: > 100 µM | TGI [31]: > 100 µM | TGI [32]: > 100 µM | TGI [33]: > 100 µM | TGI [34]: > 100 µM | TGI [35]: > 100 µM | TGI [36]: > 100 µM | TGI [37]: > 100 µM | TGI [38]: > 100 µM | TGI [39]: > 100 µM | TGI [40]: > 100 µM | TGI [41]: > 100 µM | TGI [42]: > 100 µM | TGI [43]: > 100 µM | TGI [44]: > 100 µM | TGI [45]: > 100 µM | TGI [46]: > 100 µM | TGI [47]: > 100 µM

COc1ccc(N=Nc2ccc(O)c(=O)cc2)cc1
GI50 [1]: 3.07 µM | TGI [1]: > 100 µM | GI50 [2]: 24.1 µM | TGI [2]: > 100 µM | GI50 [3]: 3.02 µM | TGI [3]: > 100 µM | GI50 [4]: 3.37 µM | TGI [4]: > 100 µM | GI50 [5]: 2.03 µM | TGI [5]: 11.6 µM | GI50 [48]: 3.77 µM | TGI [48]: > 100 µM | GI50 [6]: 2.18 µM | TGI [6]: 9.94 µM | GI50 [7]: 7.07 µM | TGI [7]: > 100 µM | GI50 [8]: 4.07 µM | TGI [8]: > 100 µM | GI50 [49]: 4.3 µM | TGI [49]: > 100 µM | GI50 [9]: 4.04 µM | TGI [9]: > 100 µM | GI50 [10]: 2.58 µM | TGI [10]: 15.4 µM | GI50 [11]: 2.55 µM | TGI [11]: > 100 µM | GI50 [12]: 3.55 µM | TGI [12]: > 100 µM | GI50 [13]: 4.19 µM | TGI [13]: 41.8 µM | GI50 [14]: 2.66 µM | TGI [14]: > 100 µM | GI50 [15]: 4.41 µM | TGI [15]: > 100 µM | GI50 [16]: 4.83 µM | TGI [16]: 49.7 µM | GI50 [17]: 3.86 µM | TGI [17]: > 100 µM | GI50 [18]: 3.69 µM | TGI [18]: > 100 µM | GI50 [19]: 3.66 µM | TGI [19]: > 100 µM | GI50 [20]: 2.44 µM | TGI [20]: 27 µM | GI50 [21]: 2.22 µM | TGI [21]: 7.42 µM | GI50 [50]: 2.86 µM | TGI [50]: 14.2 µM | GI50 [51]: 3.4 µM | TGI [51]: > 100 µM | GI50 [52]: 4.62 µM | TGI [52]: > 100 µM | GI50 [22]: 4.02 µM | TGI [22]: > 100 µM | GI50 [23]: 3.69 µM | TGI [23]: > 100 µM | GI50 [24]: 3.73 µM | TGI [24]: > 100 µM | GI50 [25]: 3.02 µM | TGI [25]: > 100 µM | GI50 [26]: 1.79 µM | TGI [26]: 18.9 µM | GI50 [53]: 2.88 µM | TGI [53]: 13.4 µM | GI50 [28]: 3.64 µM | TGI [28]: > 100 µM | GI50 [29]: 5.05 µM | TGI [29]: > 100 µM | GI50 [30]: 5.89 µM | TGI [30]: > 100 µM | GI50 [31]: 2.88 µM | TGI [31]: > 100 µM | GI50 [32]: 4.82 µM | TGI [32]: > 100 µM | GI50 [33]: 2.68 µM | TGI [33]: 43.7 µM | GI50 [34]: 3.71 µM | TGI [34]: > 100 µM | GI50 [35]: 3.62 µM | TGI [35]: > 100 µM | GI50 [54]: 3.79 µM | TGI [54]: > 100 µM | GI50 [55]: 3.16 µM | TGI [55]: 11.5 µM | GI50 [36]: 5.01 µM | TGI [36]: 41.1 µM | GI50 [37]: 3.06 µM | TGI [37]: 31.6 µM | GI50 [38]: 3.34 µM | TGI [38]: 16.2 µM | GI50 [39]: 4.58 µM | TGI [39]: > 100 µM | GI50 [56]: 2.82 µM | TGI [56]: > 100 µM | GI50 [40]: 2.92 µM | TGI [40]: 51.6 µM | GI50 [41]: 3.43 µM | TGI [41]: > 100 µM | GI50 [42]: 3.79 µM | TGI [42]: > 100 µM | GI50 [43]: 4.08 µM | TGI [43]: > 100 µM | GI50 [44]: 2.64 µM | TGI [44]: > 100 µM | GI50 [57]: 5.8 µM | TGI [57]: > 100 µM | GI50 [45]: 3.2 µM | TGI [45]: > 100 µM | GI50 [46]: 3.12 µM | TGI [46]: > 100 µM | GI50 [47]: 2.11 µM | TGI [47]: 5.12 µM | GI50 [58]: 2.91 µM | TGI [58]: > 100 µM
